Assay results: the supplement of paper PMC11061612

Legend:
[1] = system: D-283MED (Other Solid Carcinomas); assay: Bliss excess, mean over the matrix (fraction); higher = more synergy
Summary of the method: (§1)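 After 24 hours at 37°C and 5% CO2 in 1536-well plates, cells in DMEM/F12 or RPMI plus 10% FBS received two-drug dose matrices for 72 hours. Viability came from CellTiter-Glo 2.0 luminescence and was scaled as inhibition, anchored at 0 by vehicle wells and at 1 by blank wells. Combination Emax is taken as the second-highest inhibition in the matrix, and Bliss excess as the observed combination effect less EA + EB − EA·EB, with EA and EB the single-agent effects.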

[2] = system: EFM-192A (Breast Carcinoma); assay: as above
Summary of the method: as §1

[3] = system: EW-22 (Ewing's Sarcoma); assay: as above
Summary of the method: as §1

[4] = system: FU-OV-1 (Ovarian Carcinoma); assay: as above
Summary of the method: as §1

[5] = system: H4 (Low Grade Glioma); assay: as above
Summary of the method: as §1

[6] = system: HCT-116 (Colorectal Carcinoma); assay: as above
Summary of the method: as §1

[7] = system: MCF7 (Breast Carcinoma); assay: as above
Summary of the method: as §1

[8] = system: MES-SA (Other Solid Carcinomas); assay: as above
Summary of the method: as §1

[9] = system: NOMO-1 (Acute Myeloid Leukemia); assay: as above
Summary of the method: as §1

[10] = system: SK-UT-1 (Other Solid Carcinomas); assay: as above
Summary of the method: as §1

[11] = system: SW948 (Colorectal Carcinoma); assay: as above
Summary of the method: as §1

[12] = system: TC-YIK (Other Solid Carcinomas); assay: as above
Summary of the method: as §1

[13] = system: YT (Other Blood Carcinomas); assay: as above
Summary of the method: as §1

[14] = system: FU-OV-1 (Ovarian Carcinoma); assay: combination Emax (second highest fraction inhibited in the dose matrix, 72 h); higher = more inhibition; extreme values may be limits of the assay
Summary of the method: as §1

[15] = system: TC-YIK (Other Solid Carcinomas); assay: as above
Summary of the method: as §1
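Wherever Bliss excess, mean over the matrix is given: after 72 h of two-drug dosing.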

Structure (SMILES) | Bliss excess [1] | Bliss excess [2] | Bliss excess [3] | Bliss excess [4] | Bliss excess [5] | Bliss excess [6] | Bliss excess [7] | Bliss excess [8] | Bliss excess [9] | Bliss excess [10] | Bliss excess [11] | Bliss excess [12] | Bliss excess [13] | combination Emax [14] | combination Emax [15]
CN(C)CCCOc1ccc(-c2ccc3ncc4c(c3c2)n(C2CCOCC2)c(=O)n4C)cn1 [AZD0156] + O=C(c1cc(Cc2n[nH]c(=O)c3ccccc23)ccc1F)N1CCN(C(=O)C2CC2)CC1 [Olaparib] (first compound max 3 µM, partner max 3 µM) | 0.115 | -0.0026 | 0.217 | -0.0526 | 0.179 | 0.129 | 0.0509 | 0.142 | 0.0887 | 0.0429 | -0.0231 | 0.102 | 0.0265 | 0.211 | 0.379
C=CCn1c(=O)c2cnc(Nc3ccc(N4CCN(C)CC4)cc3)nc2n1-c1cccc(C(C)(C)O)n1 [AZD1775] + C1CN(CCC1(C(=O)N[C@@H](CCO)C2=CC=C(C=C2)Cl)N)C3=NC=NC4=C3C=CN4 [Capivasertib] (first compound max 3 µM, partner max 3 µM) | -0.0189 | -0.0004 | 0.0403 | -0.0615 | -0.0472 | 0.0051 | 0.0075 |  | 0.0076 | -0.0037 | -0.003 | -0.0543 | -0.0938 | 0.565 | 0.895
COc1nnc2ccc(N3CCC(c4ccc(OCCN5CCN(C)C(=O)[C@H]5C)cc4)CC3)nn12 [AZD5153] + C=CCn1c(=O)c2cnc(Nc3ccc(N4CCN(C)CC4)cc3)nc2n1-c1cccc(C(C)(C)O)n1 [AZD1775] (first compound max 1 µM, partner max 1 µM) | -0.034 | -0.0138 | 0.0427 | 0.0138 | -0.0056 | -0.0367 | -0.0356 | -0.0334 | -0.0364 | -0.0323 | -0.11 | -0.0712 | -0.0842 | 0.631 | 0.935
COc1nnc2ccc(N3CCC(c4ccc(OCCN5CCN(C)C(=O)[C@H]5C)cc4)CC3)nn12 [AZD5153] + CC1(C)CCC(CN2CCN(c3ccc(C(=O)NS(=O)(=O)c4ccc(NCC5CCOCC5)c([N+](=O)[O-])c4)c(Oc4cnc5[nH]ccc5c4)c3)CC2)=C(c2ccc(Cl)cc2)C1 [Venetoclax] (first compound max 1 µM, 7x7, partner max 1 µM) | -0.0343 | -0.0257 | -0.0176 | -0.0369 | 0.033 | -0.0614 | -0.0183 | -0.06 | 0.0051 | -0.0459 | -0.0016 | -0.0716 | -0.0496 | 0.631 | 0.862
COc1nnc2ccc(N3CCC(c4ccc(OCCN5CCN(C)C(=O)[C@H]5C)cc4)CC3)nn12 [AZD5153] + CCN(CCO)CCCOc1ccc2c(Nc3cc(CC(=O)Nc4cccc(F)c4)[nH]n3)ncnc2c1 [AZD2811] (first compound max 1 µM, 7x7, partner max 1 µM) | 0.001 | -0.0154 | -0.0779 | -0.0571 | -0.0269 | -0.0384 | -0.0721 | -0.0028 | -0.0225 | -0.0144 | -0.102 | -0.106 | -0.0579 | 0.691 | 0.915
COc1nnc2ccc(N3CCC(c4ccc(OCCN5CCN(C)C(=O)[C@H]5C)cc4)CC3)nn12 [AZD5153] + C[C@@H]1COCCN1C2=NC(=NC(=C2)C3(CC3)[S@](=N)(=O)C)C4=C5C=CNC5=NC=C4 [AZD6738] (first compound max 1 µM, 7x7, partner max 10 µM) | -0.0087 | 0.0551 | -0.0258 | -0.0452 | -0.0081 | -0.0049 | -0.0228 | 0.0781 | -0.0324 | 0.0401 | -0.0493 | -0.0626 | -0.0687 | 0.744 | 0.965
COc1nnc2ccc(N3CCC(c4ccc(OCCN5CCN(C)C(=O)[C@H]5C)cc4)CC3)nn12 [AZD5153] + Cc1c2c(nn1C)CSCc1cc(n(C)n1)CSc1cc(c3ccccc3c1)OCCCc1c(C(=O)O)n(C)c3c-2c(Cl)ccc13 [AZD5991] (first compound max 1 µM, 7x7, partner max 1 µM) | -0.0409 | -0.0467 | 0.0553 | 0.0022 | -0.0287 | -0.0049 | -0.0003 | -0.0125 | 0.0355 | -0.0031 | -0.0482 | -0.0146 | -0.0316 | 0.835 | 0.98
COc1nnc2ccc(N3CCC(c4ccc(OCCN5CCN(C)C(=O)[C@H]5C)cc4)CC3)nn12 [AZD5153] + Cn1cnc2c(F)c(Nc3ccc(Br)cc3Cl)c(C(=O)NOCCO)cc21 [Selumetinib] (first compound max 1 µM, 7x7, partner max 10 µM) | -0.0211 | -0.0096 | -0.0668 | 0.0236 | -0.0184 | -0.029 | -0.0307 | 0.0199 | 0.0443 | 0.0089 | -0.0006 | 0.0028 | -0.0383 | 0.735 | 0.93
NC1(C(=O)N[C@@H](CCO)c2ccc(Cl)cc2)CCN(c2ncnc3[nH]ccc23)CC1 [Capivasertib] + CC(=O)c1c(C)c2cnc(Nc3ccc(N4CCNCC4)cn3)nc2n(C2CCCC2)c1=O [Palbociclib] (first compound max 10 µM, 7x7, partner max 10 µM) | -0.0227 | -0.0334 | -0.0152 | -0.0388 | 0.0014 | 0.01 | 0.049 | -0.0017 | 0.0378 | -0.0009 | -0.0442 | -0.048 | -0.0344 | 0.236 | 0.44
NC1(C(=O)N[C@@H](CCO)c2ccc(Cl)cc2)CCN(c2ncnc3[nH]ccc23)CC1 [Capivasertib] + CC(C)n1c(=O)n(C)c2cnc3cc(F)c(-c4ccc(OCCCN5CCCCC5)nc4)cc3c21 [AZD1390] (first compound max 10 µM, 7x7, partner max 0.3 µM) | -0.0009 | -0.062 | -0.0613 | -0.0541 | -0.0638 | -0.0263 | -0.11 | -0.0275 | -0.0537 | -0.0017 | -0.0943 | -0.0346 | -0.0228 | 0.253 | 0.17
NC1(C(=O)N[C@@H](CCO)c2ccc(Cl)cc2)CCN(c2ncnc3[nH]ccc23)CC1 [Capivasertib] + CCN(CCO)CCCOc1ccc2c(Nc3cc(CC(=O)Nc4cccc(F)c4)[nH]n3)ncnc2c1 [AZD2811] (first compound max 10 µM, 7x7, partner max 1 µM) | 0.0666 | -0.0053 | -0.0366 | -0.0235 | -0.0124 | 0.0513 | 0.0943 | 0.0165 | -0.0085 | 0.0666 | -0.0161 | -0.0415 | 0.002 | 0.268 | 0.95
NC1(C(=O)N[C@@H](CCO)c2ccc(Cl)cc2)CCN(c2ncnc3[nH]ccc23)CC1 [Capivasertib] + COc1nnc2ccc(N3CCC(c4ccc(OCCN5CCN(C)C(=O)[C@H]5C)cc4)CC3)nn12 [AZD5153] (first compound max 10 µM, 7x7, partner max 1 µM) | -0.0185 | 0.0866 | 0.08 | -0.0492 | -0.0057 | 0.0331 | -0.0413 | 0.0276 | -0.0061 | 0.0637 | -0.0082 | -0.0723 | 0.007 | 0.575 | 0.962
NC1(C(=O)N[C@@H](CCO)c2ccc(Cl)cc2)CCN(c2ncnc3[nH]ccc23)CC1 [Capivasertib] + C[C@@H]1COCCN1C2=NC(=NC(=C2)C3(CC3)[S@](=N)(=O)C)C4=C5C=CNC5=NC=C4 [AZD6738] (first compound max 10 µM, 7x7, partner max 10 µM) | -0.0048 | -0.0546 | -0.0047 | -0.0313 | -0.0667 | -0.0432 | -0.0707 | -0.0719 | -0.0579 | -0.0983 | -0.102 | 0.0091 | -0.0249 | 0.35 | 0.901
Cc1nc(Nc2ncc(C(=O)Nc3c(C)cccc3Cl)s2)cc(N2CCN(CCO)CC2)n1 [Dasatinib] + CC(=O)Nc1cccc(-n2c(=O)n(C3CC3)c(=O)c3c(Nc4ccc(I)cc4F)n(C)c(=O)c(C)c32)c1 [Trametinib] (first compound max 2 µM, 7x7, partner max 1 µM) | -0.0475 | -0.0545 | -0.0457 |  | -0.0488 | 0.0991 | -0.0601 | -0.0311 | -0.126 | -0.0255 | -0.008 | 0.0746 | -0.0521 |  | 0.638
CS(=O)(=O)CCNCc1ccc(-c2ccc3ncnc(Nc4ccc(OCc5cccc(F)c5)c(Cl)c4)c3c2)o1 [Lapatinib] + Cn1cnc2c(F)c(Nc3ccc(Br)cc3Cl)c(C(=O)NOCCO)cc21 [Selumetinib] (first compound max 10 µM, 7x7, partner max 10 µM) | 0.0163 |  | -0.0366 | -0.0698 | -0.0159 | -0.0864 |  |  | -0.0346 | 0.0151 | -0.0086 | 0.0665 | 0.0147 | 0.55 | 0.531
CS(=O)(=O)CCNCc1ccc(-c2ccc3ncnc(Nc4ccc(OCc5cccc(F)c5)c(Cl)c4)c3c2)o1 [Lapatinib] + NC1(c2ccc(-c3nc4ccn5c(=O)[nH]nc5c4cc3-c3ccccc3)cc2)CCC1 [MK-2206] (first compound max 10 µM, 7x7, partner max 10 µM) | 0.0164 |  | 0.0308 | 0.0239 | 0.0054 | -0.0347 | -0.0702 |  | 0.0427 | 0.0057 | 0.049 | -0.014 | -0.0321 | 0.751 | 0.944
Cc1nc(-c2cn3c(n2)-c2ccc(-c4cnn(C(C)(C)C(N)=O)c4)cc2OCC3)n(C(C)C)n1 [Taselisib] + O=C(Nc1ccc2[nH]nc(-c3ccncc3)c2c1)[C@@H]1CCN(CC(=O)N2CCN(c3ccc(-c4ncccn4)cc3)CC2)C1 [SCH772984] (first compound max 10 µM, 7x7, partner max 5 µM) | 0.061 |  | 0.0152 | -0.0373 | -0.0007 | 0.138 |  |  | 0.141 | 0.104 | 0.032 | 0.0859 | -0.0084 | 0.727 | 0.661
